Experimental data taken from the NIST ThermoML archive (doi:10.1021/je800548t).
± gives the expanded uncertainty stated by the source.

Conditions: Liquid, Ebulliometric method (Recirculating still)

SMILES	vapor or sublimation pressure (321 K) [kPa]	vapor or sublimation pressure (325 K) [kPa]	vapor or sublimation pressure (330 K) [kPa]	vapor or sublimation pressure (335 K) [kPa]	vapor or sublimation pressure (340 K) [kPa]	vapor or sublimation pressure (345 K) [kPa]	vapor or sublimation pressure (350 K) [kPa]	vapor or sublimation pressure (355 K) [kPa]	vapor or sublimation pressure (359 K) [kPa]	vapor or sublimation pressure (305 K) [kPa]	vapor or sublimation pressure (310 K) [kPa]	vapor or sublimation pressure (315 K) [kPa]	vapor or sublimation pressure (320 K) [kPa]	vapor or sublimation pressure (342 K) [kPa]
CCO [ethanol]	26.41 ± 0.21	32.02 ± 0.26	40.44 ± 0.33	50.67 ± 0.41	63 ± 0.51	77.77 ± 0.63	95.35 ± 0.77	116.13 ± 0.93	135.37 ± 1.1	–	–	–	–	–
ClC(Cl)Cl [trichloromethane]	–	73.88 ± 0.3	87.71 ± 0.36	103.5 ± 0.42	121.45 ± 0.49	–	–	–	–	34.81 ± 0.14	42.47 ± 0.17	51.43 ± 0.21	61.85 ± 0.25	129.28 ± 0.52
